Reference: the NIST ThermoML archive (doi:10.1021/acs.jced.8b00132)
Values joined by “and” are separate entries in the source; they are usually repeats but may differ in a detail not shown here. Equal entries are not always repeated.

O=C(C(F)(F)C(F)(F)F)C(F)(C(F)(F)F)C(F)(F)F [dodecafluoro-2-methylpentan-3-one]
Conditions	thermal conductivity
432.7 K, 49519 kPa, Liquid, transient hot wire	0.06451 W/m/K
432.71 K, 656 kPa, Gas, hot wire	0.02379 W/m/K
432.72 K, 1422 kPa, Gas, transient hot wire	0.02498 W/m/K
432.72 K, 49517 kPa, Liquid, transient hot wire	0.06454 W/m/K
432.77 K, 1418 kPa, Gas, transient hot wire	0.02496 W/m/K
432.77 K, 1419 kPa, Gas, transient hot wire	0.02504 W/m/K
432.79 K, 1709 kPa, Liquid, transient hot wire	0.03809 W/m/K
432.79 K, 34245 kPa, Liquid, transient hot wire	0.05883 W/m/K
432.8 K, 1709 kPa, Liquid, transient hot wire	0.03764 W/m/K
432.8 K, 1977 kPa, Liquid, transient hot wire	0.03806 W/m/K
432.81 K, 652 kPa, Gas, hot wire	0.02381 W/m/K
432.81 K, 655 kPa, Gas, hot wire	0.02367 W/m/K
432.81 K, 1704 kPa, Liquid, transient hot wire	0.03807 W/m/K
432.81 K, 1706 kPa, Liquid, transient hot wire	0.03761 W/m/K
432.81 K, 1977 kPa, Liquid, transient hot wire	0.03794 W/m/K
432.81 K, 22767 kPa, Liquid, transient hot wire	0.05368 W/m/K
432.82 K, 375 kPa, Gas, hot wire	0.02254 W/m/K
432.83 K, 376 kPa, Gas, hot wire	0.02257 W/m/K
432.83 K, 22777 kPa, Liquid, transient hot wire	0.05369 W/m/K
432.84 K, 2631 kPa, Liquid, transient hot wire	0.03896 W/m/K
432.84 K, 49496 kPa, Liquid, transient hot wire	0.06439 W/m/K
432.84 K, 49505 kPa, Liquid, transient hot wire	0.06438 W/m/K
432.86 K, 2631 kPa, Liquid, transient hot wire	0.03897 W/m/K
432.87 K, 158 kPa, Gas, hot wire	0.02102 W/m/K
432.87 K, 159 kPa, Gas, hot wire	0.02111 W/m/K
432.87 K, 3941 kPa, Liquid, transient hot wire	0.04063 W/m/K
432.88 K, 1297 kPa, Gas, transient hot wire	0.02344 W/m/K
432.88 K, 1298 kPa, Gas, transient hot wire	0.02358 W/m/K
432.88 K, 1418 kPa, Gas, transient hot wire	0.02521 W/m/K
432.9 K, 43 kPa, Gas, hot wire	0.02081 W/m/K
432.9 K, 650 kPa, Gas, hot wire	0.02367 W/m/K
432.91 K, 42 kPa, Gas, hot wire	0.02089 W/m/K
432.93 K, 374 kPa, Gas, hot wire	0.02268 W/m/K
432.93 K, 375 kPa, Gas, hot wire	0.02269 W/m/K
432.93 K, 1976 kPa, Liquid, transient hot wire	0.03821 W/m/K
432.93 K, 34232 kPa, Liquid, transient hot wire	0.05866 W/m/K
432.93 K, 34243 kPa, Liquid, transient hot wire	0.05865 W/m/K
432.94 K, 1977 kPa, Liquid, transient hot wire	0.03807 W/m/K
432.95 K, 1709 kPa, Liquid, transient hot wire	0.03814 W/m/K
432.98 K, 22754 kPa, Liquid, transient hot wire	0.05357 W/m/K
432.98 K, 49470 kPa, Liquid, transient hot wire	0.06431 W/m/K
432.99 K, 157 kPa, Gas, hot wire	0.02107 W/m/K and 0.02099 W/m/K
432.99 K, 1298 kPa, Gas, transient hot wire	0.02366 W/m/K
433 K, 1299 kPa, Gas, transient hot wire	0.02363 W/m/K
433 K, 6150 kPa, Liquid, transient hot wire	0.04309 W/m/K
433 K, 15091 kPa, Liquid, transient hot wire	0.04962 W/m/K
433 K, 15095 kPa, Liquid, transient hot wire	0.04957 W/m/K
433.01 K, 43 kPa, Gas, hot wire	0.02102 W/m/K and 0.02104 W/m/K
433.02 K, 647 kPa, Gas, hot wire	0.02339 W/m/K
433.02 K, 648 kPa, Gas, hot wire	0.02337 W/m/K
433.02 K, 6152 kPa, Liquid, transient hot wire	0.04303 W/m/K
433.03 K, 3941 kPa, Liquid, transient hot wire	0.04082 W/m/K
433.04 K, 373 kPa, Gas, hot wire	0.02274 W/m/K
433.04 K, 2629 kPa, Liquid, transient hot wire	0.03906 W/m/K
433.04 K, 2631 kPa, Liquid, transient hot wire	0.03946 W/m/K
433.05 K, 372 kPa, Gas, hot wire	0.02268 W/m/K
433.05 K, 3942 kPa, Liquid, transient hot wire	0.04075 W/m/K
433.08 K, 34226 kPa, Liquid, transient hot wire	0.05871 W/m/K
433.08 K, 34233 kPa, Liquid, transient hot wire	0.05874 W/m/K
433.11 K, 155 kPa, Gas, hot wire	0.02111 W/m/K
433.12 K, 156 kPa, Gas, hot wire	0.02101 W/m/K
433.12 K, 646 kPa, Gas, hot wire	0.02323 W/m/K
433.12 K, 9670 kPa, Liquid, transient hot wire	0.04595 W/m/K
433.12 K, 9671 kPa, Liquid, transient hot wire	0.04584 W/m/K
433.12 K, 49466 kPa, Liquid, transient hot wire	0.06434 W/m/K
433.13 K, 43 kPa, Gas, hot wire	0.02102 W/m/K
433.13 K, 644 kPa, Gas, hot wire	0.02306 W/m/K
433.13 K, 22732 kPa, Liquid, transient hot wire	0.05371 W/m/K
433.13 K, 22752 kPa, Liquid, transient hot wire	0.05367 W/m/K
433.13 K, 49459 kPa, Liquid, transient hot wire	0.06442 W/m/K
433.14 K, 43 kPa, Gas, hot wire	0.02099 W/m/K
433.14 K, 1300 kPa, Gas, transient hot wire	0.02391 W/m/K
433.16 K, 372 kPa, Gas, hot wire	0.02272 W/m/K and 0.02276 W/m/K
433.16 K, 15084 kPa, Liquid, transient hot wire	0.04944 W/m/K
433.19 K, 6155 kPa, Liquid, transient hot wire	0.04297 W/m/K
433.19 K, 6159 kPa, Liquid, transient hot wire	0.04336 W/m/K
433.19 K, 15094 kPa, Liquid, transient hot wire	0.04947 W/m/K
433.21 K, 1138 kPa, Gas, transient hot wire	0.02265 W/m/K and 0.02278 W/m/K
433.24 K, 155 kPa, Gas, hot wire	0.02111 W/m/K
433.24 K, 1299 kPa, Gas, transient hot wire	0.02422 W/m/K
433.24 K, 3943 kPa, Liquid, transient hot wire	0.04078 W/m/K
433.24 K, 3944 kPa, Liquid, transient hot wire	0.04039 W/m/K
433.24 K, 34207 kPa, Liquid, transient hot wire	0.05868 W/m/K
433.24 K, 34211 kPa, Liquid, transient hot wire	0.05857 W/m/K
